Patent US20090317444A1, “PROCESS FOR CELL PROLIFERATION” (BIOBERICA, S.A., priority 2006, published 2009)
“Also recorded” adds a separate entry of the source.

Experiments:
[1] = test system: chondrocytes of bovine origin; test: Proliferation of chondrocytes measured through DNA levels (alginate beads); assay type: cell-based; details: 10 days culture in alginate beads; for increase in DNA levels relative to the control (without compound): 10 mM; for effect on DNA levels per alginate bead (in words): 1, 5 and 10 mM, FIG. 1
Experimental: Chondrocytes of bovine origin were isolated using digestion with collagenase following a previously described process (B. Beekman et al., Exp. Cell Res., 237, 135-141 (1997)).
The isolated bovine chondrocytes were cultured following a methodology described in the literature (J. DeGroot, et al., 266, 303-310 (2001)). The chondrocytes were transferred to an alginate support matrix, forming alginate beads which contain the cells at a concentration of 2.5×10^6 cells/ml, and DMEM (Dulbecco's Modified Eagle's Medium) with Glutamax was added to them supplemented with ascorbic acid, penicillin, streptomycin and FCS (foetal cow serum). After 24 hours, the medium was renewed and the chondrocytes contained in alginate beads (5 beads/well, with 250 μl of medium/well, in plates of 48 wells) were cultured in the absence (control) or presence of the compound to test (at concentrations of 1, 5 and 10 mM). The medium was regenerated twice a week. At the end of 10 days, the beads were collected (5 beads in each well, n=3 wells per condition) and they were stored at a temperature of −20° C. until making the analysis.
To quantify DNA levels, the beads were digested with papain and Hoechst 33258 (bisbenzimide) dye was used. DNA levels per alginate bead were determined.
(§1) The evaluation of the differences between all compounds and the control condition was assayed using analysis of variance (ANOVA). Then, the LSD test was performed to determine the difference between each compound and the control condition. They were considered statistically significant when p≦0.05.

[2] = test system: chondrocytes of bovine origin; test: Release of glycosaminoglycans from the chondrocytes in alginate beads after stimulation with IL-1β; assay type: cell-based; details: IL-1β 20 ng/ml, 48 hours; for effect on release of GAGs by the chondrocytes (in words): 10 mM, FIG. 2
Experimental: Chondrocytes of bovine origin were cultured for 21 days in alginate beads as support matrix; approximately 100 beads in 75 cm^2 culture dishes in 25 ml of medium, without adding the compounds to be tested. The medium was regenerated twice a week. After 21 days of culture, the beads were transferred to 48-well plates, 5 beads per well, 250 μl of medium per well. The compounds to be tested were added on day 21 (mannosamine hydrochloride, glucosamine hydrochloride and N-acetylglucosamine) to evaluate the effect on the degradation of the extracellular matrix after stimulation with IL-1β (20 ng/ml). Each compound was tested at concentrations of 1 and 10 mM. In each experiment each concentration was tested at n=3 wells, except in the control (n=8 wells). Once the alginate beads have been incubated with IL-1β (20 ng/ml) and the compounds during 48 hours, the culture medium was collected (day 21 to day 23). The GAGs content in the beads and in the culture medium on day 23 was measured (release of GAGs mediated by aggrecanase). The GAGs content was determined, after digestion with papain, with the Blyscan™ assay (kit) from Biocolor Ltd.
The results were expressed as a percentage of released GAGs with respect to total GAGs.
as §1

[3] = test system: bovine chondrocytes; test: Glycosaminoglycan content per chondrocyte (GAG with respect to DNA); assay type: cell-based; details: for effect on GAGs levels per chondrocyte (in words): 5 and 10 mM, FIG. 4
Experimental: Bovine chondrocytes were used as starting point and the same methodology was followed as in Example 1 (chondrocyte proliferation measured through DNA levels), but in this case each compound was tested at two concentrations (5 and 10 mM).
The GAG content was determined, after digestion with papain, with the Blyscan™ assay (kit) from Biocolor Ltd.
as §1

[4] = test system: metalloprotease activity (MMP) of the chondrocytes; test: Metalloprotease activity of the chondrocytes in alginate beads after stimulation with IL-1β and activation with APMA; assay type: cell-based, bovine; details: IL-1β 20 ng/ml, 1 mM APMA
Experimental: Bovine chondrocytes were used as starting point and the methodology of the Example 2 was followed, but in this case each compound was tested at two concentrations (5 and 10 mM).
The chondrocytes were cultured for 21 days in alginate to produce extracellular matrix. After 2 days of stimulation with IL-1β and with or without compounds, the medium was renewed. The metalloprotease activity was then determined in the culture medium after 2 hours of incubation with 20 ng/ml of IL-1β, 1 mM of APMA and with or without the compounds. The metalloprotease activity was quantified using the substrate for metalloproteases TNO 211-F (I. Tchetverikov et al., Clin. Exp. Rheumatol. 21, 711-8 (2003)).
as §1

Structure (SMILES) | increase in DNA levels relative to the control (without compound) [1] | effect on DNA levels per alginate bead (in words) [1] | effect on release of GAGs by the chondrocytes (in words) [2] | increase of GAG content per chondrocyte with respect to the control (culture without product) ([3]; 10 mM) | effect on GAGs levels per chondrocyte (in words) [3] | reduction in metalloprotease activity with respect to the control ([4]; 10 mM) | effect on metalloprotease activity (in words) ([4]; 5 and 10 mM, FIG. 3) | effect on DNA levels per alginate bead (in words) ([1]; hydrochloride) | reduction of the release of GAGs with respect to the control (culture without compound) ([2]; upper concentration (10 mM))
Cl.N[C@H]1C(O)O[C@H](CO)[C@@H](O)[C@@H]1O (stereo partly shown) [glucosamine hydrochloride, reference compound] | 4 times | dose-dependent increase in DNA levels | reduced the release of GAGs | – | – | – | – | – | –
CC(=O)N[C@@H]1C(O)O[C@H](CO)[C@@H](O)[C@@H]1O (stereo partly shown) [N-acetylmannosamine] | – | – | – | 63% | dose-dependent increase in GAGs levels per chondrocyte | – | – | – | –
CC(=O)N[C@H]1C(O)O[C@H](CO)[C@@H](O)[C@@H]1O (stereo partly shown) [N-acetylglucosamine, reference compound] | – | No significant effect | – | – | No significant effect | – | – | – | –
Cl.N[C@@H]1C(O)O[C@H](CO)[C@@H](O)[C@@H]1O (stereo partly shown) [mannosamine hydrochloride] | 10 times | – | reduced the release of GAGs | – | – | 30% | the only one which reduced metalloprotease activity | highest levels of DNA/bead; also recorded: dose-dependent increase in DNA levels | 30%
